From patent publication US10258635B2, “Formulations and compositions of vitamin D analogs for treating and preventing cancer and other diseases” (priority 2013, dated 2019)
Entries after “also recorded” stand apart in the source; their conditions may differ.

Columns and labels:
normal kidney cells = experiment: 3H-thymidine incorporation assay in normal kidney cells; format: cell-based; conditions: 10^−6M
[1] = test system: LNCaP (androgen-sensitive prostate cancer) cells; experiment: 3H-thymidine incorporation assay, LNCaP (Example 13); format: cell-based
Description: (§1) Antiproliferation studies of keratinocytes (normal skin), MCF-7 (breast cancer), PZ-HPV-7 (immortalized normal prostate), LNcap (androgen-sensitive prostate cancer) and PC-3 (androgen-insensitive prostate cancer) cells, treated with 10^−6M of 25-OH-D3-3-BE (AMPI-105) or 1,25(OH)2D3 (bioactive Vitamin D3 hormone) were performed with a ^3H-thymidine incorporation assay
(§2) PZ-HPV-7 cells were grown in MCDB media containing pituitary extract, epidermal growth factor (EGF) and 1% penicillin/streptomycin. Keratinocytes were also grown in the same media with additional PG1 and insulin. PC-3, LNCaP, DU-145 cells were grown in RPMI media containing 10% fetal bovine serum (FBS) and antibiotics. MCF-7 cells were grown in DMEM media containing 10% FBS and antibiotics. LAPC-4 cells were maintained in IMEM media containing antibiotics, 1° % L-glutamine and 10 nM of R1881, a synthetic […]. MC3T3 mouse bone cells were grown in α-MEM media containing 10% FBS and antibiotics. In general, cells were grown in 35 mm dishes to 70-80% confluence and then plated into 24-well plates in respective media. After the cells grew to approximately 70% confluence, they were serum-starved for 20 hours (MCF-7, PC-3, LNCaP and DU-145 cells) followed by incubation with steroid samples. Keratinocytes and PZ-HPV-7 cells, after reaching 70% confluence, were kept in MCDB media without additives for 20 hours before treatment with steroids. In general, reagents were dissolved in ethanol (EtOH), and dilution with the media was adjusted in such a way that the concentration of EtOH was 0.1% v/v.
(§3) Assays were carried out with six (6) replicates and student's t-test was employed for statistical analysis. Results are expressed relative to EtOH (100%) in FIG. 24.

[2] = test system: LNCaP prostate cancer cells; experiment: Cell-counting antiproliferative evaluation, LNCaP; format: cell-based; conditions: Calcitrol 10^−6M, AMPI-107 10^−5M; dosed days 1, 3, 5, counted 7th day
Description: (§4) Prostate cancer cells (DU-145, PC-3 and LNCaP) were grown in DMEM medium with 10% FBS, antibiotics, etc. […] Results are designated as percentage of ethanol control.

[3] = test system: PC-3 Prostate Cancer Cells; experiment: Cell-counting antiproliferative evaluation, PC-3; format: cell-based; design: dose or concentration left out as unconfirmed; conditions: dosed days 1, 3, 5, counted 7th day
Description: as §4

24-OHase = experiment: Message for 24-OHase in LNCaP cells; format: cell-based
MCF-7 cells = experiment: Cell counting assay, MCF-7; format: cell-based; conditions: 48 hr; 10^−6 M 25-OH-D3-3-BE, 10^−7 M 1,25(OH)2D3; not serum-starved
Description: as §2
(§5) It should be noted that in this assay cells were not serum-starved prior to addition of the reagents, and 10^−7 M of 1,25(OH)2D3 had little effect on all the cells.

DU-145 cells = experiment: 3H-thymidine incorporation assay in DU-145 cells; format: cell-based, human; conditions: for anti-proliferative effect in DU-145 cells: 10^−6M, separate experiment
[4] = test system: PC-3 (androgen-insensitive prostate cancer) cells; experiment: 3H-thymidine incorporation assay, PC-3; format: cell-based; conditions: 10^−6 M; for growth reduction of PC-3 cells: relative to EtOH
Description: as §1, §2, §3

LAPC-4 cells = experiment: Cell counting assay, LAPC-4; format: cell-based; conditions: 24 hours; 10^−6 M 25-OH-D3-3-BE, 10^−7 M 1,25(OH)2D3; not serum-starved
Description: as §2, §5

[5] = test system: DU-145 Prostate Cancer Cells; experiment: Cell-counting antiproliferative evaluation, DU-145; format: cell-based, human; conditions: Calcitrol 10^−6M, AMPI-107 10^−5M; dosed days 1, 3, 5, counted 7th day
Description: as §4

[6] = test system: DU 145 human androgen-insensitive prostate cancer cells; experiment: AMPI-107 in DU 145 xenograft, p.o. administration (Example 17); format: in vivo
Excerpt: (§6) Male, athymic mice (average weight 20 gm) were fed normal rat chow and water ad libitum. They were inoculated with DU 145 human androgen-insensitive prostate cancer cells (10^6), grown in culture in the flank under light anesthesia. […] Treatment started on day 11 and stopped on day 30; and they were left untreated for two (2) additional days when they were sacrificed.

[7] = test system: RCC 54 kidney cancer cells; conditions: 7.5×10^−7 to 10^−6M
Description: In a typical assay cells were grown to 50-60% confluence in 24-well plates in respective media containing 5% FBS, and serum starved for 20 hours, followed by treatment with various agents (in 0.1% ethanolic solution) or ethanol (vehicle) in serum-containing medium for 16 hours. After the treatment media was removed from the wells and replaced with media containing ^3H-thymidine (Sigma, 0.1 μCi) per well, and the cells were incubated for 3 hours at 37° C. After this period media was removed by aspiration and the cells were washed thoroughly (3×0.5 ml) with PBS. Ice-cold 5% perchloric acid solution (0.5 ml) was added to each well and the cells were incubated on ice for 20 minutes. After this incubation, perchloric acid was removed by aspiration, replaced with 0.5 ml of fresh perchloric acid solution and the cells were incubated at 70° C. for 20 minutes. Solution from each well was mixed with scintillation fluid and counted in a liquid scintillation counter. There were eight (8) wells per sample; statistics was carried out by Student's t test.

LNCaP cells = experiment: Cell counting assay, LNCaP; format: cell-based; conditions: 24 hours; 10^−6 M 25-OH-D3-3-BE, 10^−7 M 1,25(OH)2D3; not serum-starved
Description: as §2, §5

[8] = test system: Normal prostate WPMY cells; experiment: Viability testing by MTT reduction in normal prostate cells; format: cell-based; conditions: 24 hours; AMPI-107 1 and 10 μM, Calcitrol 1 μM
Description: MTT is reduced in metabolically active cells, in part by the action of dehydrogenase enzymes, to generate reducing equivalents such as NADH and NADPH. The resulting intracellular purple formazan can be solubilized and quantified by spectrophotometry. After 5 minutes at room temperature, absorbances in plates were measured using a plate analyzer set for in dual wavelength comparisons at wavelength of 540 nm with a reference wavelength of 620 nm.

MC3T3 mouse bone cells = experiment: Cell counting assay, MC3T3; format: cell-based; conditions: 48 hr; 10^−6 M 25-OH-D3-3-BE, 10^−7 M 1,25(OH)2D3; not serum-starved
Description: as §2, §5

[9] = test system: PZ-HPV-7 (immortalized normal prostate) cells; experiment: 3H-thymidine incorporation assay, PZ-HPV-7; format: cell-based
Description: as §1
as §2, with “Keratinocytes and PZ-HPV-7 cells, after reaching 70% confluence, were kept in MCDB media without additives for 20 hours before treatment with steroids. In general, reagents were dissolved in ethanol (EtOH), and dilution with the media was adjusted in such a way that the concentration of EtOH was 0.1% v/v.” left out

[10] = test system: DU-145 human prostate cancer cells; experiment: DU-145 xenograft efficacy, p.o. administration (Example 11); format: in vivo, nude mice; conditions: p.o.; calcitriol 0.5 μg/kg and 1.0 μg/kg; AMPI-109 0.5 μg/kg
[11] = test system: DU 145 human androgen-insensitive prostate cancer cells; experiment: AMPI-107 in DU 145 xenograft, i.p. administration (Example 17); format: in vivo
Excerpt: as §6

[12] = test system: MCF-7 (breast cancer) cells; experiment: 3H-thymidine incorporation assay, MCF-7; format: cell-based; conditions: 10^−6M
Description: as §1
as §2, with “Keratinocytes and PZ-HPV-7 cells, after reaching 70% confluence, were kept in MCDB media without additives for 20 hours before treatment with steroids. In general, reagents were dissolved in ethanol (EtOH), and dilution with the media was adjusted in such a way that the concentration of EtOH was 0.1% v/v.” left out

DU 145 cells = experiment: Efficacy study of 25-OH-D3-3-BE in DU 145 tumor-bearing athymic nude mice (oral gavage); format: in vivo; conditions: for average tumor volume at the end of treatment: oral gavage every third day, day 11 to 31; for anti-tumor effect: mouse prostate tumor xenograft model
Description: Male, athymic nude mice (average weight 20 gm) were fed normal rat chow and water ad libitum. They were inoculated with DU 145 cells, grown in culture, in the flank under light anesthesia. […] Administration of the compound was done by oral gavage on every third day (when weights were determined). Treatment started on day 11 and stopped on day 31; and they were left untreated for several additional days (as shown in FIG. 26) when they were sacrificed and blood was collected.

[13] = test system: keratinocytes (normal skin); experiment: 3H-thymidine incorporation assay, keratinocytes; format: cell-based; conditions: 10^−6M
Description: as §1
as §2, with “Keratinocytes and PZ-HPV-7 cells, after reaching 70% confluence, were kept in MCDB media without additives for 20 hours before treatment with steroids. In general, reagents were dissolved in ethanol (EtOH), and dilution with the media was adjusted in such a way that the concentration of EtOH was 0.1% v/v.” left out

C=C1/C(=C\C=C2/CCC[C@]3(C)[C@@H]([C@H](C)CCCC(C)(C)O)CC[C@@H]23)C[C@@H](O)C[C@@H]1O [calcitriol, 1,25-dihydroxyvitamin D3, reference compound]
impact on normal kidney cells versus control (normal kidney cells): neither Calcitriol nor AMPI-109 had any statistically different impact | inhibition at 1 µM ([1]; Homo sapiens, LNCaP, read-out: growth inhibition of LNCaP cells): ~60% | growth inhibition of LNCaP cells [2]: strongly inhibited the growth | growth inhibition of PC-3 cells [3]: strongly inhibited the growth | message for 24-OHase (24-OHase): up regulated | number of MCF-7 cells (MCF-7 cells): little effect | antiproliferative effect in DU-145 cells (DU-145 cells; 2.5×10^−7M to 10^−6M, 20 hours): no effect | anti-proliferative effect in DU-145 cells (DU-145 cells): failed to produce any discernible anti-proliferative effect | growth reduction of PC-3 cells [4]: 70% | number of LAPC-4 cells (LAPC-4 cells): little effect | growth inhibitory activity in DU-145 cells [5]: approximately similar growth inhibitory activity | toxicity (body weight) ([6]; mouse, in vivo, po, 1 mg/kg): clearly toxic as evidenced by considerable loss of body weight | reduction of proliferation of RCC 54 kidney cancer cells [7]: did not have any statistically different impact | number of LNCaP cells (LNCaP cells): little effect | cell metabolism (MTT reduction) [8]: slightly, but significantly reduce cell metabolism | number of MC3T3 cells (MC3T3 mouse bone cells): little effect | inhibition at 1 µM ([9]; Prostate cell, read-out: growth inhibition of PZ-HPV-7 cells): ~65% | body weight [10]: significant loss in body weight | toxicity (body weight) ([11]; mouse, in vivo, ip, 1 mg/kg): clearly toxic as evidenced by considerable loss of body weight

C=C1CC[C@H](O)C/C1=C/C=C1\CCC[C@]2(C)[C@@H]([C@H](C)CCCC(C)(C)O)CC[C@@H]12 [25-OH-D3, 25-hydroxyvitamin D3, reference compound]
growth reduction of PC-3 cells [4]: marginal antiproliferative effect

C=C1/C(=C\C=C2/CCC[C@]3(C)[C@@H]([C@H](C)/C=C/[C@@H](O)C4(C(=O)OCCCC)CC4)CC[C@@H]23)C[C@@H](O)C[C@@H]1O [ZK 159222]
message for 24-OHase (24-OHase): obliterated

C=C1/C(=C\C=C2/CCC[C@]3(C)[C@@H]([C@H](C)/C=C/C=C/C(O)(CC)CC)CC[C@@H]23)C[C@@H](O)C[C@@H]1O [EB-1089, reference compound]
anti-proliferative effect in DU-145 cells (DU-145 cells): failed to produce any discernible anti-proliferative effect

Vitamin D3-3-epoxide [AMPI-107]
growth inhibition of LNCaP cells [2]: strongly inhibited the growth and significantly stronger effect and more | growth inhibitory activity in DU-145 cells [5]: approximately similar growth inhibitory activity; also recorded: equally effective | efficacy on tumor size ([6]; 1 mg/kg p.o. every third day, day 11 to 30): strongly reduced tumor size | toxicity (body weight) ([6]; p.o., hormone 0.5 and 1.0 μg/kg, MPI 107 1 mg/kg): completely non-toxic | efficacy on tumor size ([11]; 1 mg/kg i.p. every third day, day 11 to 30): strongly reduced tumor size | toxicity (body weight) ([11]; i.p., hormone 0.5 and 1.0 μg/kg, MPI 107 1 mg/kg): completely non-toxic

C=C1CCC(OC(=O)CBr)CC1=CC=C1CCCC2(C)C1CCC2C(C)CCCC(C)(C)O (stereo not drawn) [AMPI-105, 25-hydroxyvitamin D3-3-bromoacetate]
cytotoxicity to LNCaP cells ([1]; 10^−6 M, phase contrast microscope): cytotoxic | growth inhibition of LNCaP cells ([1]; 10^−6 M, relative to EtOH): ~98% | growth inhibition in MCF-7 cells relative to 1,25(OH)2D3 [12]: weaker than 1,25(OH)2D3 | number of MCF-7 cells (MCF-7 cells): affected to a much lesser extent | cytotoxicity to PC-3 cells ([4]; phase contrast microscope): cytotoxic | growth reduction of PC-3 cells [4]: 90% | number of LAPC-4 cells (LAPC-4 cells): sharply reduced number of cells | average tumor volume at the end of treatment (DU 145 cells; 0.25 μg/kg): 650 mm^3 | average tumor volume at the end of treatment (DU 145 cells; 0.5 μg/kg): 500 mm^3 | gross weight of the animals versus untreated (DU 145 cells; during and after the treatment): no significant difference | anti-tumor effect (DU 145 cells): strong anti-tumor activity | anti-tumor effect (DU 145 cells; listed as 25-OH-D3-3-BE): dose-dependent anti-tumor effect | number of LNCaP cells (LNCaP cells): sharply reduced number of cells | number of MC3T3 cells (MC3T3 mouse bone cells): affected to a much lesser extent | growth inhibition in keratinocytes relative to 1,25(OH)2D3 [13]: stronger than an equivalent amount of 1,25 (OH)2D3 | growth inhibition of PZ-HPV-7 cells ([9]; 10^−6 M, relative to EtOH): approximately 50%

25-hydroxyvitamin D3-3-epoxide [AMPI-106]
anti-tumor effect (DU 145 cells): strong anti-tumor activity
